# Molecular target: Recombinant human KIF18A (1-467His-tagged) protein (Homo sapiens (Human), UniProt Q8NI77)
# Assay: KIF18A enzyme assay (microtubule-stimulated ATPase activity, ADP-Glo)
# Assay type: biochemical
# Details: 30 nM KIF18A, ATP 75 μM, read-out: inhibitory activity against KIF18A IC50
# Method in brief: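 Baculovirus-expressed human KIF18A (1-467, His-tagged; 30 nM) preincubated 15 min at room temperature with compound (22-point 2-fold series) in pH 7.5 Tris buffer containing 30 μg/mL pig microtubules and 1 μM paclitaxel.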
# Recombinant human KIF18A (1-467His-tagged) protein, sequence (Q8NI77 1-467): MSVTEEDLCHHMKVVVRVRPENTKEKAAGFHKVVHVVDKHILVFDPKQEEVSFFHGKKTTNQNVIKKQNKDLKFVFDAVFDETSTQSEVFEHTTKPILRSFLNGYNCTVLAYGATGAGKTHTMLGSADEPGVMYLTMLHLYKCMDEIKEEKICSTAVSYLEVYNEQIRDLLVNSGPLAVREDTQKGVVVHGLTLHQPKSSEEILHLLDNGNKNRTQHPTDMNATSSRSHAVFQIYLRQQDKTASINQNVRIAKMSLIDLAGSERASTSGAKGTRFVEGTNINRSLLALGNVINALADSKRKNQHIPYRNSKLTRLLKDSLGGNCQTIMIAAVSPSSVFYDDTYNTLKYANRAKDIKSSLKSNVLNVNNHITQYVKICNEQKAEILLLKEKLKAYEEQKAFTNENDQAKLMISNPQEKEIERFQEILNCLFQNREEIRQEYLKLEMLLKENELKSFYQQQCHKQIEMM
# Recombinant human KIF18A (1-467His-tagged) protein, sequence (P02550 whole entry partner): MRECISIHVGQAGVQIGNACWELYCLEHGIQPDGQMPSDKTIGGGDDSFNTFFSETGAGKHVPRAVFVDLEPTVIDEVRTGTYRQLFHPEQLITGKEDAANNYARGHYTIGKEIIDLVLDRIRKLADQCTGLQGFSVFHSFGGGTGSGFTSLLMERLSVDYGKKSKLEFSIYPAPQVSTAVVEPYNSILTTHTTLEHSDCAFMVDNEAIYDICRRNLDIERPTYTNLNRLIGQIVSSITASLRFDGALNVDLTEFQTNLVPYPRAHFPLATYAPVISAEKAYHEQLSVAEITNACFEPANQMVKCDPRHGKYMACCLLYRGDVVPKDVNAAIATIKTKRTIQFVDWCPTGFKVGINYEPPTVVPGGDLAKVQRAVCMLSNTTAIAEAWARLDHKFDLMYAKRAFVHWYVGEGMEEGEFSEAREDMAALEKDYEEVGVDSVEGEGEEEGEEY
# Recombinant human KIF18A (1-467His-tagged) protein, sequence (P02554 whole entry partner): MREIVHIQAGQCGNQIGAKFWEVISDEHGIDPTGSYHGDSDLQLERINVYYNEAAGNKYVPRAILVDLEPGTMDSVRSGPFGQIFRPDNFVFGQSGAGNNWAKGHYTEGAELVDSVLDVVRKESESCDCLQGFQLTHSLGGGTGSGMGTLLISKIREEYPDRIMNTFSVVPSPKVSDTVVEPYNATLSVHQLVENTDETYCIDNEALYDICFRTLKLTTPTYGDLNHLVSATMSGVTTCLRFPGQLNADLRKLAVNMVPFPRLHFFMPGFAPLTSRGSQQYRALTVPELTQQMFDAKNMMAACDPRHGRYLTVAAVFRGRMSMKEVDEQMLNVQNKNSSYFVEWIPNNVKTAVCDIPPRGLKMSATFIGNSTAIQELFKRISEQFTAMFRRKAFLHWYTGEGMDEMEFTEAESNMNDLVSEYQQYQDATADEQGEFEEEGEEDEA
row,SMILES,IC50 [nM]
1,CN1CCc2cc(NC(=O)c3ccc(NS(=O)(=O)CCO)cc3N3CCC4(CC3)CC4)cc(N3CC(F)(F)C3)c21 [Compound 260],≤ 100
2,O=C(Nc1cc(OCCC(F)(F)F)c2occc2c1)c1ccc(S(=O)(=O)NCCO)cc1N1CCC2(CC1)CC2 [Compound 149],≤ 100
3,Cn1ccc2cc(NC(=O)c3ccc(NS(=O)(=O)CCO)cc3N3CCC4(CC3)CC4)cc(N3CCC4(CC4)C3)c21 [Compound 390],≤ 100
4,O=C(Nc1cc(N2CCC(F)(F)CC2)c2occc2c1)c1ccc(S(=O)(=O)NCCO)cc1N1CCC2(CC1)CC2 [Compound 145],≤ 100
5,C[C@@H](CO)NS(=O)(=O)c1ccc(C(=O)Nc2cc3c(c(N4CCC(F)(F)CC4)n2)N(C)CC3)c(N2CCC3(CC2)CC3)c1 [Compound 349],≤ 100
6,C[C@H]1CN(c2nc(C(=O)Nc3ccc(NS(=O)(=O)CCO)cc3N3CCC4(CC3)CC4)cc3c2N(C)CC3)CCO1 [Compound 355],≤ 100
7,Cn1ccc2cc(NC(=O)c3ccc(NS(=O)(=O)CCO)cc3N3CCC4(CC3)CC4)cc(NC(C)(C)CO)c21 [Compound 395],≤ 100
8,C[C@H](CO)NS(=O)(=O)c1ccc(C(=O)Nc2cc3c(c(N4CCO[C@H](C)C4)c2)OCC3)c(N2CCC3(CC2)CC3)c1 [Compound 32],≤ 100
9,C[C@@H]1CN(c2nc(NC(=O)c3ccc(NS(=O)(=O)CCO)cc3N3CCC4(CC3)CC4)cc3ccoc23)CCO1 [Compound 194],≤ 100
10,C[C@@H](CO)NS(=O)(=O)c1ccc(NC(=O)c2cc(N3CCC(F)(F)CC3)c3occc3c2)c(N2CCC3(CC2)CC3)c1 [Compound 189],≤ 100
11,Cn1ccc2cc(C(=O)Nc3ccc(NS(=O)(=O)CCO)cc3N3CCC4(CC3)CC4)cc(N3CCOCC3)c21 [Compound 428],≤ 100
12,C[C@@H](CO)NS(=O)(=O)c1ccc(NC(=O)c2cc(N3CCC(F)(F)CC3)c3c(ccn3C)c2)c(N2CCC3(CC2)CC3)c1 [Compound 445],≤ 100
13,CN1CCc2cc(NC(=O)c3ccc(S(=O)(=O)NCCO)cc3N3CCC4(CC3)CC4)cc(N3CCC(C)(F)C3)c21 (centres unmarked) [Compound 280],≤ 100
14,O=C(Nc1cc(N2CCOCC2)c2occc2c1)c1ccc(NS(=O)(=O)CCO)cc1N1CCC2(CC1)CC2 [Compound 140],≤ 100
15,C[C@@H](CO)S(=O)(=O)Nc1ccc(C(=O)Nc2cc(N3CCC(F)(F)CC3)c3occc3c2)c(N2CCC3(CC2)CC3)c1 [Compound 141],≤ 100
16,Cn1ccc2cc(C(=O)Nc3ccc(S(=O)(=O)NCCO)cc3N3CCC4(CC3)CC4)nc(OCCC(F)(F)F)c21 [Compound 501],≤ 100
17,C[C@@H]1CN(c2cc(C(=O)Nc3ccc(S(=O)(=O)N[C@@H](C)CO)cc3N3CCC4(CC3)CC4)cc3ccoc23)CCO1 [Compound 191],≤ 100
18,C[C@@H](CO)S(=O)(=O)Nc1ccc(C(=O)Nc2cc3c(c(N4CCC(F)(F)CC4)c2)N(C)CC3)c(N2CCC3(CC2)CC3)c1 [Compound 269],≤ 100
19,C[C@H](CO)NS(=O)(=O)c1ccc(NC(=O)c2cc3c(c(N4CCC(F)(F)CC4)c2)N(C)CC3)c(N2CCC3(CC2)CC3)c1 [Compound 318],≤ 100
20,C[C@@H]1CN(c2cc(C(=O)Nc3ccc(S(=O)(=O)NCCO)cc3N3CCC4(CC3)CC4)cc3c2OCC3)CCO1 [Compound 50],≤ 100
21,C[C@H]1CN(c2nc(C(=O)Nc3ccc(S(=O)(=O)NCCO)cc3N3CCC4(CC3)CC4)cc3ccn(C)c23)CCO1 [Compound 499],≤ 100

row,SMILES,IC50 [nM]
1,CN1CCc2cc(NC(=O)c3ccc(S(=O)(=O)NCCO)cc3N3CCC4(CC3)CC4)cc(N3CCOCC3)c21 [Compound 284],≤ 100
2,Cn1ccc2cc(NC(=O)c3ccc(NS(=O)(=O)CCO)cc3N3CCC4(CC3)CC4)cc(N3CCOCC3)c21 [Compound 396],≤ 100
3,C[C@H](CO)NS(=O)(=O)c1ccc(NC(=O)c2cc3c(c(N4CCO[C@H](C)C4)n2)OCC3)c(N2CCC3(CC2)CC3)c1 [Compound 128],≤ 100
4,Cn1ccc2cc(C(=O)Nc3ccc(NS(=O)(=O)CCO)cc3N3CCC4(CC3)CC4)cc(NC(C)(C)CO)c21 [Compound 427],≤ 100
5,CN1CCc2cc(C(=O)Nc3ccc(S(=O)(=O)NCCO)cc3N3CCC4(CC3)CC4)nc(N3CC4CC4C3)c21 (centres unmarked) [Compound 378],≤ 100
6,O=C(Nc1ccc(S(=O)(=O)NCCO)cc1N1CCC2(CC1)CC2)c1cc2c(c(OCCC(F)(F)F)n1)OCC2 [Compound 117],≤ 100
7,Cn1ccc2cc(C(=O)Nc3ccc(S(=O)(=O)NCCO)cc3N3CCC4(CC3)CC4)cc(N3CC(F)(F)C3)c21 [Compound 436],≤ 100
8,C[C@@H]1CN(c2cc(NC(=O)c3ccc(NS(=O)(=O)CCO)cc3N3CCC4(CC3)CC4)cc3ccn(C)c23)CCO1 [Compound 386],≤ 100
9,C[C@H]1CN(c2cc(C(=O)Nc3ccc(S(=O)(=O)NCCO)cc3N3CCC4(CC3)CC4)cc3c2OCC3)CCO1 [Compound 51],≤ 100
10,C[C@H]1CN(c2cc(NC(=O)c3ccc(NS(=O)(=O)CCO)cc3N3CCC4(CC3)CC4)cc3ccoc23)CCO1 [Compound 131],≤ 100
11,CN1CCc2cc(NC(=O)c3ccc(NS(=O)(=O)CCO)cc3N3CCC4(CC3)CC4)nc(N3CCC(F)(F)CC3)c21 [Compound 321],≤ 100
12,O=C(Nc1cc2c(c(N3CCC(F)(F)CC3)n1)NCCC2)c1ccc(NS(=O)(=O)CCO)cc1N1CCC2(CC1)CC2 [Compound 542],≤ 100
13,O=C(Nc1cc(N2CCC3(CC3)C2)c2occc2c1)c1ccc(S(=O)(=O)NCCO)cc1N1CCC2(CC1)CC2 [Compound 150],≤ 100
14,C[C@@H](CO)NS(=O)(=O)c1ccc(C(=O)Nc2cc(N3CCC(F)(F)CC3)c3c(ccn3C)c2)c(N2CCC3(CC2)CC3)c1 [Compound 413],≤ 100
15,C[C@@H]1CN(c2cc(NC(=O)c3ccc(S(=O)(=O)N[C@@H](C)CO)cc3N3CCC4(CC3)CC4)cc3c2N(C)CC3)CCO1 [Compound 287],≤ 100
16,C[C@@H]1CN(c2cc(C(=O)Nc3ccc(NS(=O)(=O)CCO)cc3N3CCC4(CC3)CC4)cc3c2OCC3)CCO1 [Compound 34],≤ 100
17,O=C(Nc1cc(N2CC3CC3C2)c2occc2c1)c1ccc(NS(=O)(=O)CCO)cc1N1CCC2(CC1)CC2 (centres unmarked) [Compound 138],≤ 100
18,C[C@@H]1CN(c2cc(C(=O)Nc3ccc(S(=O)(=O)NCCO)cc3N3CCC4(CC3)CC4)cc3ccoc23)CCO1 [Compound 178],≤ 100
19,CC1(F)CCN(c2cc(C(=O)Nc3ccc(NS(=O)(=O)CCO)cc3N3CCC4(CC3)CC4)cc3ccoc23)C1 (centres unmarked) [Compound 168],≤ 100
20,O=C(Nc1cc2ccoc2c(N2CCOCC2)n1)c1ccc(NS(=O)(=O)CCO)cc1N1CCC2(CC1)CC2 [Compound 204],≤ 100
21,CC1(F)CCN(c2cc(C(=O)Nc3ccc(NS(=O)(=O)CCO)cc3N3CCC4(CC3)CC4)cc3c2OCC3)C1 (centres unmarked) [Compound 40],≤ 100

row,SMILES,IC50 [nM]
1,C[C@@H](CO)S(=O)(=O)Nc1ccc(C(=O)Nc2cc3ccoc3c(N3CCC(F)(F)CC3)n2)c(N2CCC3(CC2)CC3)c1 [Compound 205],≤ 100
2,CC1(F)CCN(c2cc(C(=O)Nc3ccc(S(=O)(=O)NCCO)cc3N3CCC4(CC3)CC4)cc3ccoc23)C1 (centres unmarked) [Compound 184],≤ 100
3,C[C@H]1CN(c2nc(NC(=O)c3ccc(S(=O)(=O)NCCO)cc3N3CCC4(CC3)CC4)cc3ccoc23)CCO1 [Compound 211],≤ 100
4,CN1CCc2cc(C(=O)Nc3ccc(S(=O)(=O)NCCO)cc3N3CCC4(CC3)CC4)cc(N3CC4CC4C3)c21 (centres unmarked) [Compound 314],≤ 100
5,C[C@@H]1CN(c2nc(C(=O)Nc3ccc(NS(=O)(=O)[C@@H](C)CO)cc3N3CCC4(CC3)CC4)cc3ccn(C)c23)CCO1 [Compound 495],≤ 100
6,Cn1ccc2cc(NC(=O)c3ccc(NS(=O)(=O)CCO)cc3N3CCC4(CC3)CC4)nc(N3CCC(C)(F)C3)c21 (centres unmarked) [Compound 456],≤ 100
7,CN1CCc2cc(NC(=O)c3ccc(NS(=O)(=O)CCO)cc3N3CCC4(CC3)CC4)nc(N3CCC(F)CC3)c21 [Compound 329],≤ 100
8,C[C@@H]1CN(c2nc(NC(=O)c3ccc(S(=O)(=O)N[C@@H](C)CO)cc3N3CCC4(CC3)CC4)cc3c2OCC3)CCO1 [Compound 95],≤ 100
9,CC(C)(CO)Nc1cc(C(=O)Nc2ccc(NS(=O)(=O)CCO)cc2N2CCC3(CC2)CC3)cc2ccoc12 [Compound 171],≤ 100
10,O=C(Nc1cc2ccoc2c(N2CCOCC2)n1)c1ccc(S(=O)(=O)NCCO)cc1N1CCC2(CC1)CC2 [Compound 220],≤ 100
11,O=C(Nc1ccc(NS(=O)(=O)CCO)cc1N1CCC2(CC1)CC2)c1cc(OCCC(F)(F)F)c2occc2c1 [Compound 165],≤ 100
12,CN1CCc2cc(C(=O)Nc3ccc(NS(=O)(=O)CCO)cc3N3CCC4(CC3)CC4)nc(NC(C)(C)CO)c21 [Compound 363],≤ 100
13,C[C@H](CO)S(=O)(=O)Nc1ccc(NC(=O)c2cc3ccoc3c(N3CCC(F)(F)CC3)n2)c(N2CCC3(CC2)CC3)c1 [Compound 238],≤ 100
14,CN1CCc2cc(NC(=O)c3ccc(S(=O)(=O)NCCO)cc3N3CCC4(CC3)CC4)nc(N3CCC(C)(F)C3)c21 (centres unmarked) [Compound 344],≤ 100
15,O=C(Nc1ccc(S(=O)(=O)NCCO)cc1N1CCC2(CC1)CC2)c1cc2c(c(N3CC4CC4C3)c1)OCC2 (centres unmarked) [Compound 58],≤ 100
16,Cn1ccc2cc(C(=O)Nc3ccc(S(=O)(=O)NCCO)cc3N3CCC4(CC3)CC4)cc(N3CCC(F)(F)CC3)c21 [Compound 433],≤ 100
17,CN1CCc2cc(NC(=O)c3ccc(S(=O)(=O)NCCO)cc3N3CCC4(CC3)CC4)nc(N3CCC4(CC4)C3)c21 [Compound 342],≤ 100
18,C[C@@H]1CN(c2nc(NC(=O)c3ccc(S(=O)(=O)NCCO)cc3N3CCC4(CC3)CC4)cc3ccn(C)c23)CCO1 [Compound 466],≤ 100
19,O=C(Nc1cc(N2CCOCC2)c2occc2c1)c1ccc(S(=O)(=O)NCCO)cc1N1CCC2(CC1)CC2 [Compound 156],≤ 100
20,C[C@H]1CN(c2nc(C(=O)Nc3ccc(S(=O)(=O)NCCO)cc3N3CCC4(CC3)CC4)cc3c2N(C)CC3)CCO1 [Compound 371],≤ 100

# From patent publication US20250197382A1, “KIF18A INHIBITOR” (WIGEN BIOMEDICINE TECHNOLOGY (SHANGHAI) CO., LTD., priority 2022, published 2025)
